In PMC6009906, “A new nitrobenzoxadiazole-based GSTP1-1 inhibitor with a previously unheard of mechanism of action and high stability” (Journal of Enzyme Inhibition and Medicinal Chemistry, 2017):
pKi: −log10 of the molar value.

Assays:
[1] = target: T1, GSTP1-1 (glutathione transferase P1-1) (Homo sapiens, UniProt P09211); assay: CDNB-GSH conjugation assay in buffer A, pH […] °C (partial, max […] inhibition; K iapp […] without Triton); also intrinsic protein fluorescence quenching with and without GSH; assay type: biochemical
[2] = target: T1, GSTP1-1 (glutathione transferase P1-1); assay: CDNB-GSH conjugation assay in buffer B (no detergent), pH […] °C; assay type: biochemical

T1 sequence (P09211 2-210): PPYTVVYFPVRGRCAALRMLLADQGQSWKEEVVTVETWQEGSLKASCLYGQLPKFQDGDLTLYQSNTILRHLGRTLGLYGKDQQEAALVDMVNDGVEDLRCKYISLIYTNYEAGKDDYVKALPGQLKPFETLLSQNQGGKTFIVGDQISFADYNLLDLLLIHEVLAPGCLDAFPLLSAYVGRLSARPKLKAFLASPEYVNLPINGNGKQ

SMILES | pKi [1] | pKi [2]
O=C(OCCCCCCSc1ccc([N+](=O)[O-])c2nonc12)c1ccccc1 [compound 2, 6-((7 nitrobenzo[c][1,2,5]oxadiazol-4-yl)thio)hexyl benzoate] | 5.41 | 
CC(=O)OCCCCCCSc1ccc([N+](=O)[O-])c2nonc12 [compound 3, MC2752] |  | 6.22
